Measurements as given in US20040068005A1, “Pharmaceutical combinations” (priority 2000, published 2004).

How the values were obtained:
human = conditions: controlled release ISMN preparations; cited from earlier work
normal conscious rabbits [1] = experiment: Hyperinsulinaemic euglycaemic glucose clamping (insulin sensitivity), normal rabbits; format: in vivo, New Zealand white rabbits
Procedure: (§1) The experiments are carried out with adult, male New Zealand white rabbits, weighing 3.0-3.5 kg, housed as described in Am. J. Physiol 1994, Heart Circ. Physiol, 35: H2033-H2041 and J. Moll Cell.. Cardiol. 1997, 29: 1977-1983.
(§2) To estimate insulin sensitivity and/or insulin resistance, hyperinsulinaemic (100 eU/ml) euglycaemic (5.5 mM/l) glucose clamping was used. The glucose clamping values (M) were established as values of glucose infusion rates expressed in mg/kg/min to maintain blood glucose level at 5.5 mM/l.

[2] = tested on: hypercholesterolaemic, insulin resistant conscious rabbits; experiment: Hyperinsulinaemic euglycaemic glucose clamping (insulin sensitivity), hypercholesterolaemic rabbits; format: in vivo, New Zealand white rabbits; conditions: for Glucose infusion rate / M values of hyperinsulinaemic and euglycaemic glucose clamping: hypercholesterolaemic; for Glucose infusion rate: insulin resistant rabbit; for Insulin sensitivity: percent of means, control = 100
Procedure: (§3) The experiments are carried out with adult, male New Zealand white rabbits, weighing 3.0-3.5 kg, housed as described in Am. […] Physiol, 35: H2033-H2041 and J. Moll Cell.. Cardiol.
as §2

normal conscious rabbits [3] = experiment: Ventricular pacing-induced myocardial ischaemia (ST-segment elevation), normal rabbits; format: in vivo, New Zealand white rabbits
Procedure: as §3
(§4) The induction of global myocardial ischaemia was based on a method described as above.

[4] = tested on: streptozotocin diabetic rabbits; experiment: Femoral nerve conduction velocity, streptozotocin diabetes; format: in vivo, New Zealand white rabbits
Procedure: as §1
These series of experiments were carried out to verify/exclude sensory neuropathy. Left saphenous nerve conduction velocity was determined as described in Eur J. Pharmacol 1999, 386:83-88.
Streptozotocin (40 mg/kg i.v.) produced a decrease in nerve conduction velocity in femoral “A” and “C” fibres, respectively, as determined 8 weeks after streptozotocin injection. […] The combination of any of these drugs with nitroglycerin yielded an improvement of conduction velocity in streptozotocin-diabetic aminals similar to that seen with nitroglycerin alone.

healthy volunteers = experiment: Oral glucose tolerance test (OGTT) with nitroglycerin patch, plasma glucose and immunoreactive insulin; format: in vivo, human; conditions: for Insulin / Glucose: OGTT
Procedure: Twenty persons were studied.
Between 2 oral glucose, tolerance tests (OGTT) the volunteers were randomized for receiving either active NITRODERM TTS 10 (releasing approx. 0.4 mg hours^−1 nitroglycerin) or placebo patches. The study was carried out and evaluated in a double blind fashion. The patients received the glucose solution at 8 a.m. Venous blood samples were taken during fasting (immediately before glucose) and at 15, 30, 60, 90, 120 and 180 minutes after the glucose load. The samples evaluated for plasma glucose level (mmol 1^−1) and immunoreactive insulin responses (eU ml^−1). Plasma glucose was determined by means of an autoanalyzer, using the glucoseoxidease method. Immunoreactive insulin levels were assessed by radioimmunoassay method using antihuman antibody. During the study, two ECG leads (II and V1 or V6) and arterial blood pressure were continuously monitored.

[5] = tested on: hypercholesterolaemic, insulin resistant conscious rabbits; experiment: Ventricular pacing-induced myocardial ischaemia (ST-segment elevation), hypercholesterolaemic rabbits; format: in vivo, New Zealand white rabbits; conditions: hypercholesterolaemic
Procedure: as §3, §4

[6] = tested on: hypercholesterolaemic, insulin resistant rabbits; experiment: Femoral nerve conduction velocity, hyperlipidaemia-induced insulin resistance; format: in vivo, New Zealand white rabbits
Procedure: as §3
These series of experiments were carried out to verify/exclude sensory neuropathy.

[7] = tested on: isolated pancreatic islets; conditions: Am. J. Physiol 1996;271;C1098-C1102; cited from earlier work
[8] = normal rabbits, 2 mg/kg per os ISMN
[9] = normal rabbits, 2 mg/kg per os controlled release ISMN
[10] = normal rabbits, 4 mg/kg per os controlled release ISMN
[11] = sampling 0 (control), active patch approx. 0.4 mg/hour nitroglycerin, n=20
[12] = Table I, sampling 0 (control), active patch

O=[N+]([O-])O[C@@H]1CO[C@H]2[C@@H]1OC[C@@H]2O [ISMN, isosorbide-5-mononitrate]
threshold anti-anginal dose (human): 30 mg/day
Glucose infusion rate (normal conscious rabbits [1]; normal rabbit, metformin 100 mg/kg p.os, ISMN controlled release 5 mg/kg p.os): 16.30 ± 0.8200 mg/kg/min
metabolic (insulin sensitising) and anti-ischaemic effect (normal conscious rabbits [1]; normal rabbits, 1 mg/kg per os ISMN): without any effect
Glucose infusion rate (normal conscious rabbits [1]; normal rabbits, 1 mg/kg per os controlled release ISMN, control 13.6): 14.2 ± 0.8 mg/kg/min
metabolic (insulin sensitising) effect (normal conscious rabbits [1]; [8]): significant metabolic effect
Glucose infusion rate (normal conscious rabbits [1]; [9]): 16.0 ± 0.9 mg/kg/min
metabolic and anti-ischaemic effects (normal conscious rabbits [1]; normal rabbits, 4 mg/kg and higher doses per os ISMN): metabolic and anti-ischaemic effects
Glucose infusion rate (normal conscious rabbits [1]; [10]): 16.3 ± 1.0 mg/kg/min
M values of hyperinsulinaemic and euglycaemic glucose clamping (normal conscious rabbits [1]; normal rabbits, drug alone vs control, isosorbide-5-mononitrate 1 mg/kg/day (Olicard 40), metformin 100 mg/kg/day p.os over 3 days): increased
threshold dose of insulin sensitising effect as share of the threshold dose of the anti-ischaemic effect (normal conscious rabbits [1]; normal rabbits, per os ISMN): 50%
threshold dose of the insulin sensitising effect (normal conscious rabbits [1]; normal rabbits, per os extended-release ISMN): 2 mg/kg
Glucose infusion rate ([2]; metformin 100 mg/kg p.os, ISMN controlled release 5 mg/kg p.os): 14.00 ± 0.8900 mg/kg/min
M values of hyperinsulinaemic and euglycaemic glucose clamping ([2]; insulin resistant rabbits vs control, ISMN 5 mg/kg/day (Olicard 40), metformin 100 mg/kg/day p.os over 3 days): significantly increased
Insulin sensitivity ([2]; ISMN controlled release 5 mg/kg p.os, metformin 100 mg/kg p.os): 144.4%
ST-segment elevation (normal conscious rabbits [3]; normal rabbits, 1 mg/kg per os controlled release ISMN, control 2.0): 2.0 ± 0.09 mV
anti-ischaemic effect (changes in ST-segment elevation) (normal conscious rabbits [3]; [8]): statistically insignificant anti-ischaemic effect
ST-segment elevation (normal conscious rabbits [3]; [9]): 1.9 ± 0.16 mV
ST-segment elevation (normal conscious rabbits [3]; [10]): 1.4 ± 0.12 mV

O=[N+]([O-])OCC(CO[N+](=O)[O-])O[N+](=O)[O-] [Nitroglycerin, nitroglycerin]
Nerve conduction velocity ([4]; femoral “C” fibers, streptozotocin diabetic rabbit, with active patch (nitroglycerin 0.07 mg/kg/h), alone (Control) or with the drug): 3.6 ± 0.2 dm/s
nerve conduction in “C” fibres ([4]; streptozotocin-diabetes model, drug alone, nitroglycerin 12-h patch on vs 12-h patch off over three days): significantly improved
“A” fibre conduction ([4]; streptozotocin-diabetes model, nitroglycerin patch, data not shown): marginal amelioration
Insulin (healthy volunteers; 15 min, active patch): 38.9 ± 4.4^#+ μU ml^−1
Glucose (healthy volunteers; 15 min after glucose load, active patch): 7.3 ± 1.1^+ mmol l^−1
Glucose (healthy volunteers; 30 min, active patch): 6.1 ± 0.6^+ mmol l^−1
Insulin (healthy volunteers; 30 min, active patch): 36.3 ± 5.0^#+ μU ml^−1
Glucose (healthy volunteers; 60 min, active patch): 5.5 ± 0.4 mmol/L
Insulin (healthy volunteers; 60 min, active patch): 25.6 ± 3.3^#+ μU ml^−1
Glucose (healthy volunteers; 90 min, active patch): 4.7 ± 0.7 mmol/L
Insulin (healthy volunteers; 90 min, active patch): 24.1 ± 2.9^#+ μU ml^−1
Glucose (healthy volunteers; 120 min, active patch): 4.2 ± 0.3 mmol/L
Insulin (healthy volunteers; 120 min, active patch): 15.2 ± 2.4^+ μU ml^−1
Glucose (healthy volunteers; 180 min, active patch): 4.5 ± 0.5 mmol/L
Insulin (healthy volunteers; 180 min, active patch): 14.4 ± 2.6^ μU ml^−1
Glucose (healthy volunteers; [11]): 4.2 ± 0.3 mmol/L
Insulin (healthy volunteers; [11]): 8.2 ± 0.9^ μU ml^−1
Glucose (healthy volunteers; Table I, 15 min, active patch): 7.3 ± 1.1 mmol⁻¹
Insulin (healthy volunteers; Table I, 15 min, active patch): 38.9 ± 4.4 μU mL^−1
Glucose (healthy volunteers; Table I, 30 min, active patch): 6.1 ± 0.6 mmol⁻¹
Insulin (healthy volunteers; Table I, 30 min, active patch): 36.3 ± 5.0 μU mL^−1
Glucose (healthy volunteers; Table I, 60 min, active patch): 5.5 ± 0.4 mmol⁻¹
Insulin (healthy volunteers; Table I, 60 min, active patch): 25.6 ± 3.3 μU mL^−1
Glucose (healthy volunteers; Table I, 90 min, active patch): 4.7 ± 0.7 mmol⁻¹
Insulin (healthy volunteers; Table I, 90 min, active patch): 24.1 ± 2.9 μU mL^−1
Glucose (healthy volunteers; Table I, 120 min, active patch): 4.2 ± 0.3 mmol⁻¹
Insulin (healthy volunteers; Table I, 120 min, active patch): 15.2 ± 2.4 μU mL^−1
Glucose (healthy volunteers; Table I, 180 min, active patch): 4.5 ± 0.5 mmol⁻¹
Insulin (healthy volunteers; Table I, 180 min, active patch): 14.4 ± 2.6 μU mL^−1
Glucose (healthy volunteers; [12]): 4.2 ± 0.3 mmol⁻¹
Insulin (healthy volunteers; [12]): 8.2 ± 0.9 μU mL^−1
plasma glucose levels (healthy volunteers; active vs placebo patch group): no differences
increase in insulin in response to oral glucose load (healthy volunteers; compared to placebo patch group): significantly decreased
ST-segment elevation ([5]; insulin resistant rabbit, with active patch (nitroglycerin 0.07 mg/kg/h), alone (Control) or with the drug): 1.4 ± 0.10 mV
intracavitary ST-segment elevation / ischaemic changes produced by VOP ([5]; insulin resistant rabbits, drug alone): significantly decreased
Glucose infusion rate (normal conscious rabbits [1]; normal rabbit, with active patch (nitroglycerin 0.07 mg/kg/h), alone (Control) or together with the drug, troglitazon 70 mg/kg p.os, metformin 5 mg/kg i.v., glibenclamide 1 mg/kg i.v., idazoxan 2 mg/kg i.v.): 16.857 mg/kg/min
decrease in nerve conduction velocity in “C” fibres after atherogenic diet ([6]; eight-week atherogenic diet, drug alone): attenuated
Nerve conduction velocity ([6]; femoral “C” fibers, hypercholesterolaemic, insulin resistant rabbit, with active patch (nitroglycerin 0.07 mg/kg/h), alone (Control) or with troglitazon 70 mg/kg p.os): 4.3 ± 0.4 dm/s
Glucose infusion rate ([2]; with active patch (nitroglycerin 0.07 mg/kg/h), alone (Control) or together with the drug, same doses): 12.667 mg/kg/min
M values of hyperinsulinaemic and euglycaemic glucose clamping ([2]; insulin resistant rabbits, nitroglycerin (0, 0.7 mg/kg/h) alone): increased
Insulin sensitivity ([2]; nitroglycerin patch 0.07 mg/kg/h, metformin 5 mg/kg i.v., troglitazon 70 mg/kg p.os): 140.7%
intracavitary ST-segment elevation (normal conscious rabbits [3]; normal conscious rabbits, drug alone): significantly decreased
ST-segment elevation (normal conscious rabbits [3]; normal rabbit, with active patch (nitroglycerin 0.07 mg/kg/h), alone (Control) or with the drug): 0.7 ± 0.10 mV

N=c1c[n+](N2CCOCC2)[n-]o1 [SIN-1, 3-morpholinosydnonimine]
insulin release [7]: inhibit insulin release
